Results on five compounds are retold here after the NIST ThermoML archive (doi:10.1021/je100830b).

± gives the expanded uncertainty stated by the source.

For the data set the following is noted: 298.15 K; 101.33 kPa; Liquid; Vibrating tube method.
The term mass density denotes the mass of a sample divided by its volume. Regarding `CCO` [ethanol], the mass density is 786.4 ± 0.2 kg/m3.

As for `C[N+](=O)[O-]` [nitromethane], the mass density was found to be 1130.9 ± 0.4 kg/m3. Next, `CCCCn1cc[n+](C)c1.COS(=O)(=O)[O-]` [1-butyl-3-methylimidazolium methyl sulfate]: 1208 ± 2.8 kg/m3. In the case of `CCCO` [propan-1-ol], the mass density was found to be 797.6 ± 0.2 kg/m3. As to `CO` [methanol], the mass density was determined as 786.3 ± 0.2 kg/m3.
